Laboratory results reported in ChEMBL document CHEMBL1201862, “PubChem BioAssay data set” (2004).
Blank lines part the entries; values can stand above or below the compound they belong to. The source made the active and inactive calls.

Experiments:
[1] = molecular target: Intestinal-type alkaline phosphatase (Mus musculus, UniProt P24822); experiment: PubChem AID 488785; format: functional
[2] = molecular target: T1, Alkaline phosphatase, tissue-nonspecific isozyme (Homo sapiens, UniProt P05186); experiment: TNAP enzyme inhibition by screening hits, dose response, selectivity assay for mouse IAP inhibitor project, biochemical, human TNAP, uHTS hits (AID 488906); format: functional
T1 sequence (P05186 whole entry): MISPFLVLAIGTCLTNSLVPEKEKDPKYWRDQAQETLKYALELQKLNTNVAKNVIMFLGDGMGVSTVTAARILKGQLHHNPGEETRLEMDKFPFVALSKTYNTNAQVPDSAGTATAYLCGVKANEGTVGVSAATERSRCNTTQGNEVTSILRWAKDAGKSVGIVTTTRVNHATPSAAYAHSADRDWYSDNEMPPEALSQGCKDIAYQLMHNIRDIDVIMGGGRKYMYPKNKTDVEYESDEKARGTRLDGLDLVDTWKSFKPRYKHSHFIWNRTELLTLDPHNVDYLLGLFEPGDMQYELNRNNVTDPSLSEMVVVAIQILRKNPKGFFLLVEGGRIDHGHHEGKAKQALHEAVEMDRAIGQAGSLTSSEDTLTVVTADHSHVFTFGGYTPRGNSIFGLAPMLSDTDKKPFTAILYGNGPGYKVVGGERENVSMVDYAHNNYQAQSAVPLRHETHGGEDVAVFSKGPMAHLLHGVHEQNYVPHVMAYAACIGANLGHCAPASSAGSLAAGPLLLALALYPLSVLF

[3] = molecular target: Intestinal-type alkaline phosphatase (Homo sapiens, UniProt P09923); experiment: inhibition of human intestinal alkaline phosphatase – biochemical, dose response (AID 488876); format: functional
Beta-galactosidase = Beta-galactosidase (Escherichia coli, UniProt Q8VNN2); experiment: PubChem AID 485352; format: functional
[4] = molecular target: T2, Type-1 angiotensin II receptor (Homo sapiens, UniProt P30556); experiment: antagonism of angiotensin II type 1 receptor – cell-based, uHTS hits, selectivity assay for APJ receptor antagonist project, dose response (AID 463214); format: functional;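 further: antagonist potency against angiotensin II stimulated AT1 response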
T2 sequence (P30556 whole entry): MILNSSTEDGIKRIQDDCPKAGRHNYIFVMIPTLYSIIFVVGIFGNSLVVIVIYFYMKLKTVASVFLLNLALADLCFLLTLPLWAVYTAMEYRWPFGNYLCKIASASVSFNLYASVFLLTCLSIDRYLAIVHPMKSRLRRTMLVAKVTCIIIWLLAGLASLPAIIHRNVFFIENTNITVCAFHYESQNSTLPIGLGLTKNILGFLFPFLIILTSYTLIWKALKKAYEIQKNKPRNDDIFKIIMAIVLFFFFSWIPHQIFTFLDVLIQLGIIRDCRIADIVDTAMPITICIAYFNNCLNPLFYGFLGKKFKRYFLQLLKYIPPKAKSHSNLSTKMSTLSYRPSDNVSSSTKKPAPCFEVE

[5] = Luminescence Cell-Based Dose Retest to Confirm Inhibitors of Cancer Stem Cells. [Related pubchem assays (depositor defined):AID2717, AID2721]; format: functional; details: Homo sapiens
INS1 = experiment: INS-1E survival protection against cytokine death – cell-based, luminescence, retest, dose response (AID 449756); format: functional; details: Rattus norvegicus;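 further: cell death triggered by IL-1 beta plus TNF-alpha plus IFN-gamma mixture; protective hits raise ATP signal compared with cytokine alone wells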
H9c2 = experiment: cells; format: functional, cell-based; details: Rattus norvegicus, H9c2, Myocardium;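 further: confirmatory concentration-response retest of ultra-high-throughput screening hits for modulation of myocardial damage; cell death induced by hydrogen peroxide oxidative stress; compound pretreatment for 60 min then peroxide exposure for 2 h; potency is for protecting the cells against peroxide damage rather than for killing them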
[6] = molecular target: Glucose-6-phosphate 1-dehydrogenase (Homo sapiens, UniProt P11413); experiment: inhibition of Homo sapiens G6PD, dose series – biochemical, fluorescence, selectivity assay for P. falciparum G6PD inhibitor project, dose response (AID 504792); format: functional
A-375 [7] = experiment: MITF: Counter assay: A375 proliferation Measured in Cell-Based System Using Plate Reader - 2084-03_Inhibitor_Dose_DryPowder_Activity. [Related pubchem assays (depositor defined):AID488944]; format: functional; details: Homo sapiens
A-375 [8] = experiment: proliferation inhibition in MITF-low A375 cells – cell-based, cherry-pick samples, set 2, counter-screen for MITF modulator project, dose response (AID 540335); format: functional; details: Homo sapiens

Chain of Intestinal-type alkaline phosphatase (Homo sapiens, UniProt P09923) (P09923 whole entry): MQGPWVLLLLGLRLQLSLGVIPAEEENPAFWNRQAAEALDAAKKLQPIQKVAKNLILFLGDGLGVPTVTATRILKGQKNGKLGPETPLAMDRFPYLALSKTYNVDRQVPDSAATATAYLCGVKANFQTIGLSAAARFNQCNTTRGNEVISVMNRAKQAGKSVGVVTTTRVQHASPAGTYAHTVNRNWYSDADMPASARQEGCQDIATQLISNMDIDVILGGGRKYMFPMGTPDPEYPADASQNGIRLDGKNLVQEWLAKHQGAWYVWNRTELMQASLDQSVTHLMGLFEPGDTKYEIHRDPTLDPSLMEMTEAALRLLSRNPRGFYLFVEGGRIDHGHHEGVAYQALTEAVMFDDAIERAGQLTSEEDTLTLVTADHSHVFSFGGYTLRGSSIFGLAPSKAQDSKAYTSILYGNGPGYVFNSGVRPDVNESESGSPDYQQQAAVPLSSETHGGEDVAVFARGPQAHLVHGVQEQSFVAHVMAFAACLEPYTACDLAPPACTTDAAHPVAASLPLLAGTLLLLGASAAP
Chain of Intestinal-type alkaline phosphatase (Mus musculus, UniProt P24822) (P24822 whole entry): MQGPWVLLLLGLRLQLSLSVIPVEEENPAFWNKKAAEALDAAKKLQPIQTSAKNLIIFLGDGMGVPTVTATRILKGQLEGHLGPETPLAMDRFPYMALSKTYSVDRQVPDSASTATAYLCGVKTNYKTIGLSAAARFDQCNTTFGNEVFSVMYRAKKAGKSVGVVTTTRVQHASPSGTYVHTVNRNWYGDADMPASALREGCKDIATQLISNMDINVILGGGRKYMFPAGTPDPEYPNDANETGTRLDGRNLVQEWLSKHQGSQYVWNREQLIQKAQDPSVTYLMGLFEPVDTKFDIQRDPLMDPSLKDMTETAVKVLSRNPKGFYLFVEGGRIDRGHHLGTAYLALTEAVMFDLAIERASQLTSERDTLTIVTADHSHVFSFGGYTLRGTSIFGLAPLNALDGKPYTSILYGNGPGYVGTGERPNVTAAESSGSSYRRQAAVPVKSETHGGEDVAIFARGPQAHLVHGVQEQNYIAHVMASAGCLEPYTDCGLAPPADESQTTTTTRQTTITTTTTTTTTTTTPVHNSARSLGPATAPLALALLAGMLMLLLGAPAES
Chain of Glucose-6-phosphate 1-dehydrogenase (P11413 whole entry): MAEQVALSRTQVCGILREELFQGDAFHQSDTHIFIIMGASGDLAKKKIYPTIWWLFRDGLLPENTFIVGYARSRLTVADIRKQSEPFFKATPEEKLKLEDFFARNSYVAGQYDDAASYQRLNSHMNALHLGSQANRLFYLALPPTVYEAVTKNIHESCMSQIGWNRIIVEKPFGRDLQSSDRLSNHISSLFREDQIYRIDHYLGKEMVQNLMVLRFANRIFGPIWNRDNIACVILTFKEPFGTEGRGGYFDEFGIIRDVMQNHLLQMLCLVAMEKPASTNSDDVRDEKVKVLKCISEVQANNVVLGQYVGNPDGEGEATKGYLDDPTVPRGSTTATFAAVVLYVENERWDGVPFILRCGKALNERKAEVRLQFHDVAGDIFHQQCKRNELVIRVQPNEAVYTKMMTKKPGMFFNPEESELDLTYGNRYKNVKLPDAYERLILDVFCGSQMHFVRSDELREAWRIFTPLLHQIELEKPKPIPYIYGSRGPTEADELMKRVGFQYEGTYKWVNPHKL
Chain of Beta-galactosidase (Q8VNN2 whole entry): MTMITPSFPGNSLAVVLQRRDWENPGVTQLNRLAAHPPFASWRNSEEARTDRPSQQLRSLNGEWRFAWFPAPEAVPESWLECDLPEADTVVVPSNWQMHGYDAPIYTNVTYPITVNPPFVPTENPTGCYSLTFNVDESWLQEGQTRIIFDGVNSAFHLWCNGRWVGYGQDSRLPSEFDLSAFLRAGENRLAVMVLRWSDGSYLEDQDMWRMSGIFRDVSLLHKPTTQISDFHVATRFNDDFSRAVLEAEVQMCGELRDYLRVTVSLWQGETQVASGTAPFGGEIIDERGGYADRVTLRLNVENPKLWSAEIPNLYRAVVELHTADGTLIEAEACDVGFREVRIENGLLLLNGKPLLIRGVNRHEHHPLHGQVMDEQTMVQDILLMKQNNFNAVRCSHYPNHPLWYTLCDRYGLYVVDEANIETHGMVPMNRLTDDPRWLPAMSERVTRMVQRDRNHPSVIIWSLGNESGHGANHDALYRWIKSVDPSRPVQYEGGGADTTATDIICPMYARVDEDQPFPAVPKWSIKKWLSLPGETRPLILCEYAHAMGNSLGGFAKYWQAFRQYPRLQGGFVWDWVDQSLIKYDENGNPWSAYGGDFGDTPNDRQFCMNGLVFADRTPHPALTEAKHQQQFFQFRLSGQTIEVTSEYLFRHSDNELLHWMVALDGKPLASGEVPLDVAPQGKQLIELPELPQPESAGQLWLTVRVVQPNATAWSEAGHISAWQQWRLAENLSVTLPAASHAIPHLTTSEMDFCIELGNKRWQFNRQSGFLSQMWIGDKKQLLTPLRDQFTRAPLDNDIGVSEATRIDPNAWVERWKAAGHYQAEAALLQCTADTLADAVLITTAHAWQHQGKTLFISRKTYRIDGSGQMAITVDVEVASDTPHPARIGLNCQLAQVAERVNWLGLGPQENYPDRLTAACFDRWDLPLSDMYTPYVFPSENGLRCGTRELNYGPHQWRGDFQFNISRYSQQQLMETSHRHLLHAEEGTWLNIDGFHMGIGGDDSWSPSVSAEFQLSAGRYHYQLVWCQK

IC50 [1]: 9.13 µM (active)
IC50 [2]: > 100 µM (inactive)
IC50 [3]: > 100 µM (inactive)
SMILES: CC(/C=C/C1(O)C(C)CC(=O)CC1(C)C)OC1OC(CO)C(O)C(O)C1O (stereo not drawn)

SMILES: CC1(C)Cc2c(c(N3CCOCC3)nc3sc4c(NN)ncnc4c23)CS1
EC50 (Beta-galactosidase): > 40 µM (inactive)
IC50 [4]: 16.8 µM (active)
AC50 [5]: 7.43 µM (active)
AC50 (INS1): 2.08 µM (active)
IC50 (H9c2): 10 µM (active)

SMILES: O=C(Nc1ccc(N2CCOCC2)c(Cl)c1)c1ccc(Cl)cc1
IC50 [6]: > 80 µM (inactive)

SMILES: Cc1ccc2oc(=O)n(CCCOc3ccccc3)c2c1
AC50 (A-375 [7]): > 35 µM (active)
AC50 (A-375 [8]): > 35 µM (active)

SMILES: Cc1cccc(OCC(=O)Nc2cccc(O)c2)c1
AC50 (A-375 [7]): > 35 µM (active)
AC50 (A-375 [8]): > 35 µM (active)
